Here are results for 17 compounds from ChEMBL document CHEMBL5113380, “Functionalized quinoxalinones as privileged structures with broad-ranging pharmacological activities” (Eur J Med Chem, 2022).

One series has as its target Trypsin (Homo sapiens, UniProt P07477+P07478+P35030). The experiment in a line: Inhibition of trypsin (unknown origin). It is filed as protein assay.
In series [1] the target is T1, Phospholipase A2, membrane associated (Homo sapiens, UniProt P14555).
T1 sequence (P14555 whole entry): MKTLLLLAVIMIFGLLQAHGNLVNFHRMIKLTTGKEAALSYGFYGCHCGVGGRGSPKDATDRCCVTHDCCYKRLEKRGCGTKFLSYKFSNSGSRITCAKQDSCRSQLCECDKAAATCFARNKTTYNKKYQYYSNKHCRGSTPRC
Briefly: Inhibition of human PLA2G2A.

A further series concerns the target T2, Phospholipase A2 group V (Homo sapiens, UniProt P39877).
T2 sequence (P39877 whole entry): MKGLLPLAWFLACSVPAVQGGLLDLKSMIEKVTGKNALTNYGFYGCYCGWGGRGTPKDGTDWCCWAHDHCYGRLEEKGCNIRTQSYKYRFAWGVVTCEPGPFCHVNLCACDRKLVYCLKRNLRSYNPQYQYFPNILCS
Briefly: Inhibition of human PLA2G5.

Series [2] has as its target T3, Group 10 secretory phospholipase A2 (Homo sapiens, UniProt O15496).
T3 sequence (O15496 whole entry): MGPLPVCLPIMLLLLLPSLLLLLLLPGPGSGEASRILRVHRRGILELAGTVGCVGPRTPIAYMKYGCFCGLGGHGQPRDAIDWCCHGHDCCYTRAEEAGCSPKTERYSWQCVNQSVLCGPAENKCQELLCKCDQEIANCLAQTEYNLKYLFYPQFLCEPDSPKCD
Briefly: Inhibition of human PLA2G10.

Series [3] addresses T4, Group XIIA secretory phospholipase A2 (Homo sapiens, UniProt Q9BZM1).
T4 sequence (Q9BZM1 whole entry): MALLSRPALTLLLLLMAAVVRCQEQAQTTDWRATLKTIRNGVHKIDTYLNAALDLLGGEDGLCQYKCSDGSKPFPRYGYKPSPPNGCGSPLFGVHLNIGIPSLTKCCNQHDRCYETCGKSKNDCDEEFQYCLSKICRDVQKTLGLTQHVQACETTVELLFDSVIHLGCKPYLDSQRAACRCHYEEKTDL
The experiment in a line: Inhibition of human PLA2G12A.

The target of series [4] is Phospholipase A2, major isoenzyme (Sus scrofa, UniProt P00592). Briefly: Inhibition of porcine PLA2G1B.
Chain of Phospholipase A2, major isoenzyme (P00592 whole entry): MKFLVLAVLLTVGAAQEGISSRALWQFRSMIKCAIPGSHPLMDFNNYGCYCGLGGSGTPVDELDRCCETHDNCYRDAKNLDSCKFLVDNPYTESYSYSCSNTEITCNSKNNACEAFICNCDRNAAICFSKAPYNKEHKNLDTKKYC
A further series addresses T5, Alpha amylase (Homo sapiens, UniProt P0DUB6).
T5 sequence (P0DUB6 whole entry): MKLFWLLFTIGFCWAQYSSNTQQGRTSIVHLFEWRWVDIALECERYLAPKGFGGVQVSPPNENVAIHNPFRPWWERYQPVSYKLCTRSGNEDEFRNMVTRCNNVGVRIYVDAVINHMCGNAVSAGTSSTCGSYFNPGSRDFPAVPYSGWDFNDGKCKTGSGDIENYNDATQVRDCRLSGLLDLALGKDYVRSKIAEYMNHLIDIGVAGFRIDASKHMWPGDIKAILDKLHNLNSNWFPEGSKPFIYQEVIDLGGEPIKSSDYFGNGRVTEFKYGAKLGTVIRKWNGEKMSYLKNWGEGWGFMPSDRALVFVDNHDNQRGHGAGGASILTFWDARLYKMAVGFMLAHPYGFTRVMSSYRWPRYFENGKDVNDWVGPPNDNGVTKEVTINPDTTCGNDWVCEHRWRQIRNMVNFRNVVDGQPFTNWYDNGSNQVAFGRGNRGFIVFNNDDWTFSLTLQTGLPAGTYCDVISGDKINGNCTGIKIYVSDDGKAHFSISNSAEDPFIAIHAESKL
Briefly: Inhibition of alpha-amylase (unknown origin).

The next series concerns HT-29. Briefly: Antiproliferative activity against human HT-29 cells. It is filed as functional, cell-based.
For a further series, the system named is SMMC-7721. Briefly: Antiproliferative activity against human SMMC-7721 cells. It is filed as functional, cell-based.
In the next series the test system is HeLa. Briefly: Antiproliferative activity against human HeLa cells. The class given is functional, cell-based.
For series [5], the target named is Kappa-type opioid receptor (Homo sapiens, UniProt P41145). Briefly: Antagonist at KOR expressed in human U2OS cells measured by High content imaging based beta-arrestin translocation assay. It is filed as cell-based.
Chain of Kappa-type opioid receptor (P41145 whole entry): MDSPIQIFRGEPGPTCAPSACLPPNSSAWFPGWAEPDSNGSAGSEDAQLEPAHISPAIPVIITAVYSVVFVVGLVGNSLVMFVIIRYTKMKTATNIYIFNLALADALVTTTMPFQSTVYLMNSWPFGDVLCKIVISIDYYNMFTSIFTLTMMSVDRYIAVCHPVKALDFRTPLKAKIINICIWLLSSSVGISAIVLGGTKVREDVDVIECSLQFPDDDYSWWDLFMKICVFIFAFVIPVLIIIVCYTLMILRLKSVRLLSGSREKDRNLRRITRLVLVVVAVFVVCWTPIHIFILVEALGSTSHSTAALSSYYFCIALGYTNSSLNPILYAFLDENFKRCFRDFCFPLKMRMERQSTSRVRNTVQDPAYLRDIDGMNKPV
For the next series, the system named is Rattus norvegicus. Briefly: Antiinflammatory activity in rat model of hind paw edema assessed as paw thickness at 0.9 mg per 100 g of body weight measured after 4 hrs. It is filed as functional.
The next series concerns HeLa S3. The experiment in a line: Cytotoxicity against human HeLa S3 cells. The class given is functional, cell-based.
A further series concerns Bacillus cereus. Briefly: Antibacterial activity against Bacillus cereus. The class given is functional.
Series [6] relates to Geobacillus stearothermophilus. The experiment in a line: Antibacterial activity against Bacillus stearothermophilus. It is filed as functional.
The test system of the next series is Shigella dysenteriae. The experiment in a line: Antibacterial activity against Shigella dysenteriae. The class given is functional.
The next series relates to Enterococcus faecalis. Briefly: Antibacterial activity against Enterococcus faecalis. It is filed as functional.
A further series concerns Klebsiella pneumoniae. The experiment in a line: Antibacterial activity against Klebsiella pneumoniae. It is filed as functional.
The next series deals with Bacillus anthracis. The experiment in a line: Antibacterial activity against Bacillus anthracis. The class given is functional.
In a further series the test system is Bacillus subtilis. The experiment in a line: Antibacterial activity against Bacillus subtilis. It is filed as functional.
The next series deals with Escherichia coli. Briefly: Antibacterial activity against Escherichia coli. The class given is functional.
The next series deals with Pseudomonas aeruginosa. The experiment in a line: Antibacterial activity against Pseudomonas aeruginosa. It is filed as functional.
Series [7] concerns the target Glutamate receptor ionotropic AMPA (Homo sapiens, UniProt P42261+P42262+P42263+P48058). The experiment in a line: Antagonist activity at AMPA receptor (unknown origin). It is filed as protein-complex assay.
Series [8] concerns the target Glutamate [NMDA] receptor (Homo sapiens) (UniProt Q05586+Q12879+Q13224+O15399+O60391+Q14957+Q8TCU5). The experiment in a line: Displacement of [3H]DCKA from NMDA receptor (unknown origin) at 10 ng/ml relative to control. The settings on record: filed as antagonist. The class given is protein-complex assay. Background: Displacement assays read how much labelled ligand stays bound in the presence of the test substance.

For series [9], the target named is Glutamate [NMDA] receptor. Briefly: Displacement of [3H]DCKA from NMDA receptor (unknown origin). It is filed as protein-complex assay, Homo sapiens.
Series [10] concerns the target Glutamate [NMDA] receptor. The experiment in a line: Displacement of [3H]NMDA from NMDA receptor (unknown origin). It is filed as protein-complex assay, Homo sapiens.
Series [11] addresses Glutamate [NMDA] receptor. Briefly: Displacement of [3H]L-689560 from NMDA receptor (unknown origin). It is filed as protein-complex assay, Homo sapiens.
The nature of series [12]: Aqueous solubility of the compound. It is filed as physicochemical. Conditions: buffer.
For series [13], the species on record is Homo sapiens. Briefly: Ratio IC50 for inhibition of JNK2 (unknown origin) over JNK3 (unknown origin).
The species entered for series [14] is Homo sapiens. The experiment in a line: Ratio IC50 for inhibition of JNK1 (unknown origin) over JNK3 (unknown origin).
Series [15] has as its target Glutamate [NMDA] receptor. The experiment in a line: Displacement of [3H]CGP-39653 from NMDA receptor (unknown origin). It is filed as protein-complex assay, Homo sapiens.
Series [16] in a line: Displacement of [3H]AMPA from NMDA receptor (unknown origin). The class given is protein-complex assay, Homo sapiens.
For series [17], the target named is Glutamate [NMDA] receptor. The experiment in a line: Displacement of [3H]kainic acid from NMDA receptor (unknown origin). The class given is protein-complex assay, Homo sapiens.
The next series has as its system Candida. The experiment in a line: Antifungal activity against Candida species. The class given is functional.

≈ marks a conversion by molar mass, not a printed value.

Usually IC50 stands for the point on the concentration scale where inhibition reaches its midpoint. A lower IC50 goes with higher potency. `Cn1c(=O)c(Cc2ccc(C(=N)N)cc2)nc2cc(C3(N(C(=O)CC(=O)O)C4CCCC4)CC3)ccc21` came in with an IC50 against Trypsin of 0.55 µM.
Take `O=c1[nH]c2ccccc2n2c(-c3ccc(Cl)c(Cl)c3)ccc12`: the IC50 in [1] amounted to 1.81 µM; against Phospholipase A2 group V, 3.04 µM; in series [2] it was 2.71 µM; in series [3], 1.41 µM; in [4] it was 14.5 µM; against Alpha amylase, 431.81 µM.
For the compound `COC(=O)c1ccc2c(c1)NCCN2Cc1cc(OC)c(OC)c(OC)c1`, the IC50 turned out to be 0.51 µM in the series with HT-29, 0.427 µM in the series on SMMC-7721 and 0.194 µM in the series with HeLa.
In series [5], `COc1ccc(N2CCN(CCCNC(=O)CN3C(=O)C4CCCN4c4c(C)ccnc43)CC2)cc1` (stereo not drawn) yielded an IC50 of 2.82 µM.
`O=C(Cc1nc2ccccc2[nH]c1=O)Nn1c(-c2ccc(Cl)cc2)csc1=S`: in the series with Rattus norvegicus, the Activity is 0.45 mm.
With `O=c1[nH]c2ccccc2nc1Cc1nnc(S)n1-c1ccccc1`, the Activity with Rattus norvegicus is reported as 0.47 mm.
`CCC(C)C1Nc2ccccc2NC1=O` (stereo not drawn) yielded an IC50 with HeLa S3 of 17.2 µM.
Usually MIC stands for the smallest concentration in the dilution series that meets the test's criterion for growth inhibition. Lower therefore signals a more susceptible organism. On to `O=C1CC(c2ccccc2)=NN1c1nc2ccccc2[nH]c1=O`, for which the MIC against Bacillus cereus came out at 7.8 mg/L (≈ 25.6 µM); in [6] it was 15.6 mg/L (≈ 51.3 µM); with Shigella dysenteriae it was 62.5 mg/L (≈ 205 µM); against Enterococcus faecalis it was 7.8 mg/L (≈ 25.6 µM); against Klebsiella pneumoniae, 7.8 mg/L (≈ 25.6 µM); against Bacillus anthracis it was 7.8 mg/L (≈ 25.6 µM). The MIC in the series on Bacillus subtilis came out at 7.8 mg/L (≈ 25.6 µM); against Escherichia coli it was 15.6 mg/L (≈ 51.3 µM); against Pseudomonas aeruginosa, 31.3 mg/L (≈ 103 µM).
A word on the EC50: it is the midpoint of the concentration-response curve. High values mean lower potency in that assay, low ones higher potency in that assay. As for `Cc1cc2[nH]c(=O)c(=O)n(C[C@@H](N)C(=O)O)c2cc1C`, the EC50 in series [7] is 300 µM.
The term Ki denotes the equilibrium dissociation constant of an inhibitor or competing ligand from its target. For `O=C(CC1CCc2cc(Cl)cc3[nH]c(=O)c(=O)n1c23)Nc1ccccc1` (stereo not drawn), the Activity in series [8] came out at 79.3%. Also, in series [9], the Ki is 0.0066 µM.
Consider `O=C(O)CC1CCc2cc(Cl)cc3[nH]c(=O)c(=O)n1c23` (stereo not drawn), for which, in series [8], the Activity worked out at 90.3%. The compound also had a Ki in series [9] of 0.0051 µM.
In series [7], `Cc1cc2[nH]c(=O)c(=O)n(C[C@H](N)C(=O)O)c2cc1C` had an EC50 of 290 µM.
The term solubility denotes the dissolved amount per volume that the medium holds. `CCCn1cnc(Cc2c(Cl)c(Cl)cc3nc(O)c(O)nc23)c1`: the IC50 was determined as 0.35 µM in series [10] and 0.0044 µM in [11]. The solubility in series [12] is over 10 mg/mL.
As for `N#Cc1ccc2c(c1)N/C(=C\C(=O)c1cccc3ccccc13)C(=O)N2`, the Ratio IC50 in the series filed under Homo sapiens [13] and in the series listed under Homo sapiens [14] was over 500 throughout.
Take `COc1ccc2c(c1)[nH]c(=O)c(=O)n2Cc1cc(OC)c(OC)c(OC)c1`: the IC50 with HT-29 was determined as 1.48 µM; in the series on SMMC-7721 it was 1.6 µM; with HeLa it was 0.693 µM.
In the case of `O=C(O)CC1CCc2cc(Br)cc3[nH]c(=O)c(=O)n1c23` (stereo not drawn), the IC50 in series [15] is over 30 µM; in series [16], 4.6 µM; in series [17], over 30 µM. This compound also returned an inhibition constant (Ki) in series [9] of 0.0099 µM.
Regarding `CCOC(=O)c1nc2ccc(C)cc2[nH]c1=O`, the MIC against Candida and against Pseudomonas aeruginosa was 250 mg/L (≈ 1080 µM) throughout.
